# Target: T1, human LCE (Homo sapiens, UniProt Q9H5J4)
# T1 sequence (Q9H5J4 1-265): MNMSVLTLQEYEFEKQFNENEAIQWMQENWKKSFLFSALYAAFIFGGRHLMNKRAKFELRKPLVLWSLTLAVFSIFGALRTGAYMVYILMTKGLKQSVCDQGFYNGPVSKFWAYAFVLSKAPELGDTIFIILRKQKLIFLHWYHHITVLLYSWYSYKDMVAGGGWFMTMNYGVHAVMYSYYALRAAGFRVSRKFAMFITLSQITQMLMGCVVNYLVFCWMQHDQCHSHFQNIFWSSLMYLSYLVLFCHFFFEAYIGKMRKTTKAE
# Assay: LCE enzyme activity-inhibitory test
# Type: biochemical
# Details: [14C]-malonyl CoA / palmitoyl CoA substrate, 37° C., 90 minutes
# Method in brief: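 Human LCE (100 μg/mL in enzyme solution) was incubated 90 min at 37 °C in 100 mM potassium phosphate pH 6.5 with palmitoyl CoA, malonyl CoA, [14C]-malonyl CoA, rotenone and fatty acid-free BSA. Acid-stopped, hydrolyzed products were captured on GF/C filters and counted by scintillation. Inhibition was calculated against DMSO control.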
row,IC50,SMILES
1,2200 nM,"O=C(Nc1ccccc1)c1cccc(S(=O)(=O)N2CCCCC2)c1 [Example 88, N-phenyl-3-(piperidin-1-ylsulfonyl)benzamide]"
2,1500 nM,"O=C(Nc1ccccc1Cl)c1cccc(S(=O)(=O)N2CCCCC2)c1 [Example 89, N-(2-chlorophenyl)-3-(piperidin-1-ylsulfonyl)benzamide]"
3,9600 nM,"O=C(Nc1cccc(Cl)c1)c1cccc(S(=O)(=O)N2CCCCC2)c1 [Example 90, N-(3-chlorophenyl)-3-(piperidin-1-ylsulfonyl)benzamide]"
4,31 nM,"CC(C)Oc1ccc(NC(=O)c2cccc(S(=O)(=O)N3CCCCC3)c2)cc1 [Example 91, N-(4-isopropoxyphenyl)-3-(piperidin-1-ylsulfonyl)benzamide]"
5,9100 nM,"CC(=O)c1ccc(NC(=O)c2cccc(S(=O)(=O)N3CCCCC3)c2)cc1 [Example 92, N-(4-acetylphenyl)-3-(piperidin-1-ylsulfonyl)benzamide]"
6,1300 nM,"CC(O)c1ccc(NC(=O)c2cccc(S(=O)(=O)N3CCCCC3)c2)cc1 (centres unmarked) [Example 93, N-[4-(1-hydroxyethyl)phenyl]-3-(piperidin-1-ylsulfonyl)benzamide]"
7,5100 nM,"CC(C)(O)c1ccc(NC(=O)c2cccc(S(=O)(=O)N3CCCCC3)c2)cc1 [Example 94, N-[4-(1-hydroxy-1-methylethyl)phenyl]-3-(piperidin-1-ylsulfonyl)benzamide]"
8,320 nM,"COc1ccc(NC(=O)c2cccc(S(=O)(=O)N3CCCCC3)c2)c(OC)n1 [Example 96, N-(2,6-dimethoxypyridin-3-yl)-3-(piperidin-1-ylsulfonyl)benzamide]"
9,2500 nM,"COc1ncccc1NC(=O)c1cccc(S(=O)(=O)N2CCCCC2)c1 [Example 97, N-(2-methoxypyridin-3-yl)-3-(piperidin-1-ylsulfonyl)benzamide]"
10,260 nM,"O=C(Nc1ncccc1O)c1cccc(S(=O)(=O)N2CCCCC2)c1 [Example 98, N-(3-hydroxypyridin-2-yl)-3-(piperidin-1-ylsulfonyl)benzamide]"
11,36 nM,"COc1cccnc1NC(=O)c1cccc(S(=O)(=O)N2CCCCC2)c1 [Example 99, N-(3-methoxypyridin-2-yl)-3-(piperidin-1-ylsulfonyl)benzamide]"
12,39 nM,"CC(C)Oc1ccc(NC(=O)c2cccc(S(=O)(=O)N3CCCCC3)c2)cn1 [Example 100, N-(6-isopropoxypyridin-3-yl)-3-(piperidin-1-ylsulfonyl)benzamide]"
13,910 nM,"O=C(Nc1ccc(Oc2ccccc2)nc1)c1cccc(S(=O)(=O)N2CCCCC2)c1 [Example 101, N-(6-phenoxypyridin-3-yl)-3-(piperidin-1-ylsulfonyl)benzamide]"
14,3400 nM,"COc1ccc(NC(=O)c2cccc(S(=O)(=O)N3CCCCC3)c2)cn1 [Example 102, N-(6-methoxypyridin-3-yl)-3-(piperidin-1-ylsulfonyl)benzamide]"
15,160 nM,"COc1cccnc1NC(=O)c1cccc(S(=O)(=O)N2CCCC2)c1 [Example 104, N-(3-methoxypyridin-2-yl)-3-(pyrrolidin-1-ylsulfonyl)benzamide]"
16,84 nM,"O=C(Nc1cc(C2CC2)n[nH]1)c1cccc(S(=O)(=O)N2CCCCC2)c1 [Example 105, N-(3-cyclopropyl-1H-pyrazol-5-yl)-3-(piperidin-1-ylsulfonyl)benzamide]"
17,1800 nM,"COc1cc(Br)cnc1NC(=O)c1cccc(S(=O)(=O)N2CCCCC2)c1 [Example 106, N-(5-bromo-3-methoxypyridin-2-yl)-3-(piperidin-1-ylsulfonyl)benzamide]"
18,520 nM,"C=Cc1cnc(NC(=O)c2cccc(S(=O)(=O)N3CCCCC3)c2)c(OC)c1 [Example 107, N-(3-methoxy-5-vinylpyridin-2-yl)-3-(piperidin-1-ylsulfonyl)benzamide]"
19,100 nM,"CCc1cnc(NC(=O)c2cccc(S(=O)(=O)N3CCCCC3)c2)c(OC)c1 [Example 108, N-(5-ethyl-3-methoxypyridin-2-yl)-3-(piperidin-1-ylsulfonyl)benzamide]"
20,3200 nM,"COc1cc(-c2ccccc2)cnc1NC(=O)c1cccc(S(=O)(=O)N2CCCC2)c1 [Example 109, N-(3-methoxy-5-phenylpyridin-2-yl)-3-(pyrrolidin-1-ylsulfonyl)benzamide]"
21,210 nM,"COc1cc(Oc2ccccc2)cnc1NC(=O)c1cccc(S(=O)(=O)N2CCCC2)c1 [Example 110, N-(3-methoxy-5-phenoxypyridin-2-yl)-3-(pyrrolidin-1-ylsulfonyl)benzamide]"

row,IC50,SMILES
1,250 nM,"COc1cc(Sc2ccccc2)cnc1NC(=O)c1cccc(S(=O)(=O)N2CCCC2)c1 [Example 111, N-[3-methoxy-5-(phenylthio)pyridin-2-yl]-3-(pyrrolidin-1-ylsulfonyl)benzamide]"
2,9500 nM,"COc1cc(S(=O)(=O)c2ccccc2)cnc1NC(=O)c1cccc(S(=O)(=O)N2CCCC2)c1 [Example 112, N-[3-methoxy-5-(phenylsulfonyl)pyridin-2-yl]-3-(pyrrolidin-1-ylsulfonyl)benzamide]"
3,400 nM,"CCOc1cccnc1NC(=O)c1cccc(S(=O)(=O)N2CCCC2)c1 [Example 113, N-(3-ethoxypyridin-2-yl)-3-(pyrrolidin-1-ylsulfonyl)benzamide]"
4,2800 nM,"N#Cc1nc[nH]c1NC(=O)c1cccc(S(=O)(=O)N2CCCCC2)c1 [Example 114, N-(4-cyano-1H-imidazol-5-yl)-3-(piperidin-1-ylsulfonyl)benzamide]"
5,310 nM,"O=C(Nc1cc(C2CC2)n[nH]1)c1cccc(S(=O)(=O)N2CCCC2)c1 [Example 115, N-(3-cyclopropyl-1H-pyrazol-5-yl)-3-(pyrrolidin-1-ylsulfonyl)benzamide]"
6,12 nM,"CC(C)Oc1cc(NC(=O)c2cccc(S(=O)(=O)c3ccccn3)c2)[nH]n1 [Example 116, N-(3-isopropoxy-1H-pyrazol-5-yl)-3-(pyridin-2-ylsulfonyl)benzamide]"
7,280 nM,"CCOc1cc(NC(=O)c2cccc(S(=O)(=O)c3ccccn3)c2)[nH]n1 [Example 117, N-(3-ethoxy-1H-pyrazol-5-yl)-3-(pyridin-2-ylsulfonyl)benzamide]"
8,24 nM,"CCCOc1cc(NC(=O)c2cccc(S(=O)(=O)c3ccccn3)c2)[nH]n1 [Example 118, N-(3-propoxy-1H-pyrazol-5-yl)-3-(pyridin-2-ylsulfonyl)benzamide]"
9,390 nM,"COc1cccnc1NC(=O)c1cccc(S(=O)(=O)c2ccccn2)c1 [Example 120, N-(3-methoxypyridin-2-yl)-3-(pyridin-2-ylsulfonyl)benzamide]"
10,180 nM,"CC(C)c1ccc(NC(=O)c2cccc(S(=O)(=O)c3ccccn3)c2)cc1 [Example 121, N-(4-isopropylphenyl)-3-(pyridin-2-ylsulfonyl)benzamide]"
11,260 nM,"CC(C)Oc1ccc(NC(=O)c2cccc(S(=O)(=O)c3ccccn3)c2)nc1 [Example 122, N-(5-isopropoxypyridin-2-yl)-3-(pyridin-2-ylsulfonyl)benzamide]"
12,2700 nM,"COCC(C)Oc1ccc(NC(=O)c2cccc(S(=O)(=O)c3ccccn3)c2)c(F)c1 (centres unmarked) [Example 123, N-[2-fluoro-4-(2-methoxy-1-methylethoxy)phenyl]-3-(pyridin-2-ylsulfonyl)benzamide]"
13,350 nM,"O=C(Nc1ccc(OC(CF)CF)cc1F)c1cccc(S(=O)(=O)c2ccccn2)c1 [Example 124, N-{2-fluoro-4-[2-fluoro-1-(fluoromethyl)ethoxy]phenyl}-3-(pyridin-2-ylsulfonyl)benzamide]"
14,240 nM,"O=C(Nc1ccc(OC2CCCC2)cc1F)c1cccc(S(=O)(=O)c2ccccn2)c1 [Example 125, N-[4-(cyclopentyloxy)-2-fluorophenyl]-3-(pyridin-2-ylsulfonyl)benzamide]"
15,150 nM,"CC(C)Oc1ccc(NC(=O)c2cccc(S(=O)(=O)c3ccccn3)c2)c(F)c1 [Example 126, N-(2-fluoro-4-isopropoxyphenyl)-3-(pyridin-2-ylsulfonyl)benzamide]"
16,4500 nM,"CC(C)Oc1ccc(NC(=O)c2cccc(S(=O)(=O)c3ccccn3)c2)nc1Br [Example 129, N-(6-bromo-5-isopropoxypyridin-2-yl)-3-(pyridin-2-ylsulfonyl)benzamide]"
17,1500 nM,"CC(C)Oc1ccc(NC(=O)c2cccc(S(=O)(=O)c3cccnc3)c2)cc1 [Example 130, N-(4-isopropoxyphenyl)-3-(pyridin-3-ylsulfonyl)benzamide]"
18,1600 nM,"Cc1ccnc(S(=O)(=O)c2cccc(C(=O)Nc3ccc(OC(C)C)cc3)c2)c1 [Example 131, N-(4-isopropoxyphenyl)-3-[(4-methylpyridin-2-yl)sulfonyl]benzamide]"
19,680 nM,"Cc1cccc(S(=O)(=O)c2cccc(C(=O)Nc3ccc(OC(C)C)cc3)c2)n1 [Example 132, N-(4-isopropoxyphenyl)-3-[(6-methylpyridin-2-yl)sulfonyl]benzamide]"
20,3700 nM,"COc1ccc(NC(=O)c2cccc(S(=O)(=O)c3ccccc3)c2)cc1 [Example 133, N-(4-methoxyphenyl)-3-(phenylsulfonyl)benzamide]"

row,SMILES,IC50
1,"CCCCOc1cc(NC(=O)c2cccc(S(=O)(=O)c3ccccn3)c2)[nH]n1 [Example 119, N-(3-butoxy-1H-pyrazol-5-yl)-3-(pyridin-2-ylsulfonyl)benzamide]",6 nM
2,"CC(C)COc1ccc(NC(=O)c2cccc(S(=O)(=O)c3ccccn3)c2)c(F)c1 [Example 127, N-(2-fluoro-4-isobutoxyphenyl)-3-(pyridin-2-ylsulfonyl)benzamide]",1000 nM
3,"CCC(C)Oc1ccc(NC(=O)c2cccc(S(=O)(=O)c3ccccn3)c2)c(F)c1 (centres unmarked) [Example 128, N-(4-sec-butoxy-2-fluorophenyl)-3-(pyridin-2-ylsulfonyl)benzamide]",190 nM

# Reference: US8420823B2, “Long-chain fatty acyl elongase inhibitor comprising arylsulfonyl derivative as active ingredient” (MSD K.K., priority 2008, dated 2013)
